Experimental data as given in publication PMC6943726, “Discovery of 8-Amino-Substituted 2-Phenyl-2,7-Naphthyridinone Derivatives as New c-Kit/VEGFR-2 Kinase Inhibitors” (Molecules, 2019).

What was measured:
Assay type in all cases: biochemical
VEGFR-2 = biological target: T1, VEGFR-2 (Homo sapiens, UniProt P35968); test: HTRF enzyme assay with recombinant VEGFR-2 kinase domain; settings: for IC50: purified recombinant VEGFR-2 kinase domain, HTRF, read-out: Inhibitory Activity, IC50, VEGFR-2
T1 construct: was evaluated using an enzyme assay with a recombinant kinase domain; purchased Invitrogen (Carlsbad, CA, US)
T1 sequence (P35968 834-1162 limits assumed): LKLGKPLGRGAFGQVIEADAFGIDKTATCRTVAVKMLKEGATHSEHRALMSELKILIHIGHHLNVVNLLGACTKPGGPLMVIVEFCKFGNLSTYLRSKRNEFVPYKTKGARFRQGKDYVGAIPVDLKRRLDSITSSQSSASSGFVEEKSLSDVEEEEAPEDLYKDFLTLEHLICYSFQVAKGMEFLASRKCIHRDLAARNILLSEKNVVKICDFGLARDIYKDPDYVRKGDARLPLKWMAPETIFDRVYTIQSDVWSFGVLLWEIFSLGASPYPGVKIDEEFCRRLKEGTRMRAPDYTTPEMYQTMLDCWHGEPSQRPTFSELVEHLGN
Description: (§1) The ability of the synthesized compounds to inhibit MET, c-Kit, and VEGFR-2 activities was evaluated using an enzyme assay with a recombinant kinase domain [29]. Based on the structure activity relationship (SAR) of MET inhibitors, we proposed that the removal of the key diaryl ether fragments in compound 3 would result in a loss of MET activity.
(§2) The ability of compounds to inhibit the activity of three kinases (MET, c-Kit, and VEGFR-2) was tested in vitro [30]. Enzyme assays were run in homogeneous time-resolved fluorescence (HTRF) format in 384-well microtiter plates using purified kinases purchased from Invitrogen (Carlsbad, CA, US). The HTRF KinEASE TK kit (contains substrate-biotin, antibody-cryptate, streptavidin-XL665, 5×enzymatic buffer, and detection buffer) was purchased from Cisbio (Codolet, France), and the kinase assays were performed according to the manufacturer’s instructions. After the kinases and the compounds incubated at 25~30 °C for 5 min, the reactions were initiated by the addition of 2 μL of mixed substrate solution (mixed solution of ATP (Sigma, Shanghai, China) and substrate-biotin). The final concentrations of kinases were at EC80 and the total reaction volume was 8 μL. Plates were incubated at 30 °C for 30~60 min, then the reactions were quenched by the addition 8 μL mixed detection solution (mixed solution of antibody-cryptate and streptavidin-XL665 in detection buffer). The fluorescence excitation wavelength was […]. The fluorescence at 665 nm (acceptor emission wavelength) and 620 nm (donor emission wavelength) was measured with a PHERAstar FS plate reader (BMG, LABTECH, Ortenberg, Germany) using a time delay of 50 μs. All kinase assays were conducted using ATP concentrations below the enzyme Kmapp and kinase-specific biotinylated substrate peptides.
(§3) The data for dose responses were plotted as percentage of inhibition calculated with the data reduction formula 100 × [1 − (U1 − C2)/(C1 − C2)] versus concentration of compound, where U is the emission ratio of 665 nm and 620 nm of test sample, C1 is the average value obtained for solvent control (2% DMSO), and C2 is the average value obtained for no reaction control (no kinase sample). Inhibition curves were generated by plotting percentage of control activity versus log10 of the concentration of each […]. The IC50 values were calculated by nonlinear regression with Graphpad Prism 5 (GraphPad Software, San Diego, CA).

MET = biological target: T2, MET (Homo sapiens, UniProt P08581); test: HTRF enzyme assay with recombinant MET kinase domain; settings: purified recombinant MET kinase domain, read-out: Inhibitory Activity, IC50, MET
T2 construct: was evaluated using an enzyme assay with a recombinant kinase domain; purchased Invitrogen (Carlsbad, CA, US)
T2 sequence (P08581 1078-1345 limits assumed): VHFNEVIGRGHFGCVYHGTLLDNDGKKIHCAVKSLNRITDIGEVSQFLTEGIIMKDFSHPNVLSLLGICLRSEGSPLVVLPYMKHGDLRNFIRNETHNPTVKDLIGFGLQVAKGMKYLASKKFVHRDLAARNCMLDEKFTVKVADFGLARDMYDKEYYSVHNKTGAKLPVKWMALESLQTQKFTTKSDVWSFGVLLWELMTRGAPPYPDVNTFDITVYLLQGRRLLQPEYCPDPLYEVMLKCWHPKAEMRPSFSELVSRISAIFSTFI
Description: as §1, §2, §3

c-Kit = biological target: T3, c-Kit (Homo sapiens, UniProt P10721); test: HTRF enzyme assay with recombinant c-Kit kinase domain; settings: for IC50: purified recombinant c-Kit kinase domain, HTRF, read-out: Inhibitory Activity, IC50, c-Kit
T3 construct: was evaluated using an enzyme assay with a recombinant kinase domain; purchased Invitrogen (Carlsbad, CA, US)
T3 sequence (P10721 589-937 limits assumed): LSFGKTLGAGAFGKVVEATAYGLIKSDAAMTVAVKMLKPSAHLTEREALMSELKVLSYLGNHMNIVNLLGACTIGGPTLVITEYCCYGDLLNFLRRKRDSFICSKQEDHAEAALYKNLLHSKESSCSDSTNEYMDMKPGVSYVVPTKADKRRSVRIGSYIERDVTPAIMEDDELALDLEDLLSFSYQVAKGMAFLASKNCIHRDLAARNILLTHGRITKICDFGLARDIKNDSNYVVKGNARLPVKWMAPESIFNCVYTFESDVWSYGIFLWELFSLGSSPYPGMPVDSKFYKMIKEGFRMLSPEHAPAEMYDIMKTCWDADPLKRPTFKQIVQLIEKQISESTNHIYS
Description: as §1, §2, §3

Row | Structure (SMILES) | IC50 (VEGFR-2) [µM] | VEGFR-2 potency, fold more potent than compound 3 (VEGFR-2; ratio of IC50 values vs compound 3) | IC50 (MET) [µM] | c-Kit inhibitory activity (in words) (c-Kit) | IC50 (c-Kit) [µM]
1 | Cc1cc2ccnc(NCc3ccnc4ccccc34)c2c(=O)n1-c1ccc(Cl)cc1 [Compound 10l, 2-(4-chlorophenyl)-3-methyl-8-((quinolin-4-ylmethyl)amino)-2,7-naphthyridin-1(2H)-one] | 0.0565 | 5.0–8.8 fold | > 5 | slightly stronger c-Kit inhibitory activity than compound 3 | 0.107
2 | Cc1cc2ccnc(Nc3cccnc3)c2c(=O)n1-c1ccc(F)cc1 [Compound 10a, 2-(4-fluorophenyl)-3-methyl-8-(pyridin-3-ylamino)-2,7-naphthyridin-1(2H)-one] | > 5 |  | > 5 |  | > 5
3 | Cc1cc2ccnc(Nc3cccnc3)c2c(=O)n1-c1ccccc1 [Compound 10e, 3-methyl-2-phenyl-8-(pyridin-3-ylamino)-2,7-naphthyridin-1(2H)-one] | > 5 |  | > 5 |  | > 5
4 | Cc1cc2ccnc(NCc3ccncc3)c2c(=O)n1-c1ccc(OC(F)(F)F)cc1 [Compound 10o, 3-methyl-8-((pyridin-4-ylmethyl)amino)-2-(4-(trifluoromethoxy)phenyl)-2,7-naphthyridin-1(2H)-one] | 0.538 |  | > 5 |  | > 5
